From US11730720B2, “ALK5 inhibitors” (THERAVANCE BIOPHARMA R&D IP, LLC, priority 2018, dated 2023)

Columns and labels:
[1] = test system: TGF-β-stimulated SMAD3 phosphorylation in BEAS-2B cells; test: Cellular ALK5 potency assay, inhibition of TGF-β stimulated pSMAD3 formation in BEAS-2B cells; assay type: cell-based; conditions: Homo sapiens, inhibition of TGF-β (10 ng/mL) stimulated pSMAD3 formation, 1 hour compound incubation, read-out: BEAS2B pIC50 (converted)
Summary of the method: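 Phospho-SMAD3 was quantified by AlphaLISA in lysates of human lung epithelial BEAS-2B cells. Compound was added 1 h (37 °C, HEPES/BSA-supplemented HBSS) before a 30 min challenge with 10 ng/mL TGF-β. Values are pIC50 relative to stimulated cells without compound.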

[2] = target: T1, recombinant human ALK5 (TGF-βR1) protein (Homo sapiens, UniProt P36897); test: Biochemical ALK5 (TGF-βR1) assay to measure pKi (LANCE Ultra ULight kinase assay); conditions: apparent pKi, converted from pIC50 using the Cheng-Prusoff equation
T1 construct: purchased Life Technologies PR9075A
T1 sequence (P36897 34-503): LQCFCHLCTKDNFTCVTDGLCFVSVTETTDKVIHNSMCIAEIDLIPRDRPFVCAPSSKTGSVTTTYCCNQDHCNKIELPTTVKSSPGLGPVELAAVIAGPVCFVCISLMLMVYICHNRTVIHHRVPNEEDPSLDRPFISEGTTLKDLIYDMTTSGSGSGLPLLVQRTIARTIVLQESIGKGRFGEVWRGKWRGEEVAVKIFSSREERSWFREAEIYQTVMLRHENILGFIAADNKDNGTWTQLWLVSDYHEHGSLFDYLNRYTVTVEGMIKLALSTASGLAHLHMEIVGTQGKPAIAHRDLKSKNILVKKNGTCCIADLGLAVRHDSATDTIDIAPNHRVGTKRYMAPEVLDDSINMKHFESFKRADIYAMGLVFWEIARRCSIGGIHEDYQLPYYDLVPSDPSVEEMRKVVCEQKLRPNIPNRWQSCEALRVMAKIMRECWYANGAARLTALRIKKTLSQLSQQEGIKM
Summary of the method: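 TR-FRET kinase format: compound dose range 10 μM–25 pM equilibrated 60 min with human ALK5 and ULight-labelled topoisomerase 2α peptide in HEPES/MgCl2 buffer pH 7.5 with DTT. Reaction started with ATP (125 μM stock, 5× final), 60 min at 37° C, stopped with EDTA/Eu-anti-phospho antibody; pKi derived from pIC50 via Cheng-Prusoff.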

Row | Structure (SMILES) | Ki [2] [nM] | IC50 [1] [nM]
1 | CNCCn1cc(-c2cnc3ccc(-c4c[nH]nc4-c4cccc(COC)c4)nc3c2)nn1 [Compound 14-15, 2-(4-(6-(3-(3-(methoxymethyl)phenyl)-1H-pyrazol-4-yl)-1,5-naphthyridin-3-yl)-1H-1,2,3-triazol-1-yl)-N-methylethan-1-amine] | 0.398 to 3.16 | 25.1 to 158
2 | COC(=O)CC1CN(CCNc2cnc3ccc(-c4c[nH]nc4-c4cc(Cl)c(F)cc4F)nc3c2)CCN1 (stereo not drawn) [Compound 6-75, methyl 2-[4-[2-[[6-[3-(5-chloro-2,4-difluoro-phenyl)-1H-pyrazol-4-yl]-1,5-naphthyridin-3-yl]amino]ethyl]piperazin-2-yl]acetate] | 0.398 to 3.16 | 25.1 to 158
3 | COCc1cccc(-c2n[nH]cc2-c2ccc3ncc(N4CCN(C(C)C)CC4)cc3n2)c1 [Compound 14-5, 7-(4-isopropylpiperazin-1-yl)-2-[3-[3-(methoxymethyl)phenyl]-1H-pyrazol-4-yl]-1,5-naphthyridine] | 3.98 to 31.6 | 25.1 to 158
4 | Fc1cc(F)c(-c2n[nH]cc2-c2ccc3ncc(NC[C@H]4CCCCN4)cc3n2)cc1Cl [Compound 6-11, 6-[3-(5-chloro-2,4-difluoro-phenyl)-1H-pyrazol-4-yl]-N-[[(2R)-2-piperidyl]methyl]-1,5-naphthyridin-3-amine] | 0.398 to 3.16 | 25.1 to 158
5 | CNC1CCN(c2cnc3ccc(-c4c[nH]nc4-c4cccc(COC)c4)nc3c2)CC1 [Compound 14-1, 1-(6-(3-(3-(methoxymethyl)phenyl)-1H-pyrazol-4-yl)-1,5-naphthyridin-3-yl)-N-methylpiperidin-4-amine] | 3.98 to 31.6 | 25.1 to 158
6 | COCc1cccc(-c2n[nH]cc2-c2ccc3ncc(-c4cn[nH]c4)cc3n2)c1 [Compound 14-9, 2-[3-[3-(methoxymethyl)phenyl]-1H-pyrazol-4-yl]-7-(1H-pyrazol-4-yl)-1,5-naphthyridine] | 0.398 to 3.16 | ≤ 20
7 | Fc1cc(F)c(-c2n[nH]cc2-c2ccc3ncc(-c4ncn5c4CNCC5)cc3n2)cc1Cl [Compound 6-49, 2-[3-(5-chloro-2,4-difluoro-phenyl)-1H-pyrazol-4-yl]-7-(5,6,7,8-tetrahydroimidazo[1,5-a]pyrazin-1-yl)-1,5-naphthyridine] | 0.0398 to 0.316 | 25.1 to 158
8 | CNCCn1cc(-c2cnc3ccc(-c4nc[nH]c4-c4ccc(F)c(F)c4)cc3c2)cn1 [Compound 23-2, 2-[4-[6-[5-(3,4-difluorophenyl)-1H-imidazol-4-yl]-3-quinolyl]pyrazol-1-yl]-N-methyl-ethanamine] | 0.0398 to 0.316 | 25.1 to 158
9 | CNCCn1ccc(-c2cnc3ccc(-c4c[nH]nc4-c4cc(Cl)ccc4F)nc3c2)n1 [Compound 1-92, 2-[3-[6-[3-(5-chloro-2-fluoro-phenyl)-1H-pyrazol-4-yl]-1,5-naphthyridin-3-yl]pyrazol-1-yl]-N-methyl-ethanamine] | 0.0398 to 0.316 | ≤ 20
10 | CNCCn1cc(-c2cnc3ccc(-c4c(-c5cc(Cl)ccc5F)nnn4Cc4cccnc4)cc3c2)cn1 [Compound 20-1, 2-(4-(6-(4-(5-chloro-2-fluorophenyl)-1-(pyridin-3-ylmethyl)-1H-1,2,3-triazol-5-yl)quinolin-3-yl)-1H-pyrazol-1-yl)-N-methylethan-1-amine] | 0.0398 to 0.316 | 25.1 to 158
11 | CC(C)N1CCN(CCNc2cnc3ccc(-c4nc[nH]c4-c4cc(Cl)c(F)cc4F)cc3c2)CC1 [Compound 22-4, 6-(5-(5-chloro-2,4-difluorophenyl)-1H-imidazol-4-yl)-N-(2-(4-isopropylpiperazin-1-yl)ethyl)quinolin-3-amine] | 0.0398 to 0.316 | 25.1 to 158
12 | COC(=O)[C@@H]1CN(c2cnc3ccc(-c4c[nH]nc4-c4cc(Cl)c(F)cc4F)nc3c2)CCN1 [Compound 6-28, methyl (2S)-4-[6-[3-(5-chloro-2,4-difluoro-phenyl)-1H-pyrazol-4-yl]-1,5-naphthyridin-3-yl]piperazine-2-carboxylate] | 0.398 to 3.16 | 25.1 to 158
13 | Fc1ccc(Cl)cc1-c1[nH]cnc1-c1ccc2ncc(-c3nnn4c3CNCC4)cc2n1 [Compound 2-23, 2-[5-(5-chloro-2-fluoro-phenyl)-1H-imidazol-4-yl]-7-(4,5,6,7-tetrahydrotriazolo[1,5-a]pyrazin-3-yl)-1,5-naphthyridine] | 0.0398 to 0.316 | 25.1 to 158
14 | Fc1cc(F)c(-c2n[nH]cc2-c2ccc3ncc(NCC4CCCCN4)cc3n2)cc1Cl (stereo not drawn) [Compound 6-8, 6-[3-(5-chloro-2,4-difluoro-phenyl)-1H-pyrazol-4-yl]-N-(2-piperidylmethyl)-1,5-naphthyridin-3-amine] | 0.398 to 3.16 | 25.1 to 158
15 | Fc1cc(F)c(-c2n[nH]cc2-c2ccc3ncc(-c4cc5n(n4)CCNC5)cc3n2)cc1Cl [Compound 6-56, 2-[3-(5-chloro-2,4-difluoro-phenyl)-1H-pyrazol-4-yl]-7-(4,5,6,7-tetrahydropyrazolo[1,5-a]pyrazin-2-yl)-1,5-naphthyridine] | 0.0398 to 0.316 | 25.1 to 158
16 | COC(=O)CC1CNCCN1CCNc1cnc2ccc(-c3nc[nH]c3-c3cc(Cl)ccc3F)nc2c1 (stereo not drawn) [Compound 2-35, methyl 2-[1-[2-[[6-[5-(5-chloro-2-fluoro-phenyl)-1H-imidazol-4-yl]-1,5-naphthyridin-3-yl]amino]ethyl]piperazin-2-yl]acetate] | 0.0398 to 0.316 | 25.1 to 158
17 | CN1CCN(C2CCN(c3cnc4ccc(-c5c[nH]nc5-c5ccc(F)c(F)c5)nc4c3)CC2)CC1 [Compound 8-3, 2-(3-(3,4-difluorophenyl)-1H-pyrazol-4-yl)-7-(4-(4-methylpiperazin-1-yl)piperidin-1-yl)-1,5-naphthyridine] | 0.398 to 3.16 | 25.1 to 158
18 | Fc1ccc(Cl)cc1-c1[nH]cnc1-c1ccc2ncc(-c3nc4n(n3)CCNC4)cc2n1 [Compound 2-25, 2-[5-(5-chloro-2-fluoro-phenyl)-1H-imidazol-4-yl]-7-(5,6,7,8-tetrahydro-[1,2,4]triazolo[1,5-a]pyrazin-2-yl)-1,5-naphthyridine] | 0.0398 to 0.316 | 25.1 to 158

Now from value to molecule, other results behind:

Row | Ki [2] [nM] | Structure (SMILES) | IC50 [1] [nM]
19 | 0.0398 to 0.316 | CC1CN(c2cnc3ccc(-c4c[nH]nc4-c4cc(Cl)ccc4F)nc3c2)CC(C)N1CCN (stereo not drawn) [Compound 1-122, 2-[4-[6-[3-(5-chloro-2-fluoro-phenyl)-1H-pyrazol-4-yl]-1,5-naphthyridin-3-yl]-2,6-dimethyl-piperazin-1-yl]ethanamine] | 25.1 to 158
20 | 0.398 to 3.16 | CN(C)C1(C)CN(c2cnc3ccc(-c4c[nH]nc4-c4cc(Cl)ccc4F)nc3c2)C1 [Compound 1-33, 1-[6-[3-(5-chloro-2-fluoro-phenyl)-1H-pyrazol-4-yl]-1,5-naphthyridin-3-yl]-N,N,3-trimethyl-azetidin-3-amine] | 25.1 to 158
21 | 0.0398 to 0.316 | Fc1ccc(Cl)cc1-c1n[nH]cc1-c1ccc2ncc(NC[C@@H]3CCCN3)cc2n1 [Compound 1-20, 6-[3-(5-chloro-2-fluoro-phenyl)-1H-pyrazol-4-yl]-N-[[(2S)-pyrrolidin-2-yl]methyl]-1,5-naphthyridin-3-amine] | ≤ 20
22 | 0.0398 to 0.316 | OCCN1CCN(c2cnc3ccc(-c4c[nH]nc4-c4cc(Cl)ccc4F)nc3c2)CC1 [Compound 1-36, 2-[4-[6-[3-(5-chloro-2-fluoro-phenyl)-1H-pyrazol-4-yl]-1,5-naphthyridin-3-yl]piperazin-1-yl]ethanol] | 25.1 to 158
23 | 3.98 to 31.6 | C[C@@H]1CN(c2cnc3ccc(-c4c[nH]nc4-c4cc(Cl)ccc4F)nc3c2)[C@H](C)CN1C (racemic) [Compound 1-75, 2-[3-(5-chloro-2-fluoro-phenyl)-1H-pyrazol-4-yl]-7-[rac-(2R,5R)-2,4,5-trimethylpiperazin-1-yl]-1,5-naphthyridine] | 25.1 to 158
24 | 0.398 to 3.16 | CC(C)OC(=O)[C@H]1CN(c2cnc3ccc(-c4c[nH]nc4-c4cc(Cl)ccc4F)nc3c2)CCN1 [Compound 1-68, isopropyl (2R)-4-[6-[3-(5-chloro-2-fluoro-phenyl)-1H-pyrazol-4-yl]-1,5-naphthyridin-3-yl]piperazine-2-carboxylate] | 25.1 to 158
25 | 0.398 to 3.16 | Oc1cnc2ccc(-c3c[nH]nc3-c3cc(Cl)ccc3F)nc2c1 [Compound 1-102, 6-[3-(5-chloro-2-fluoro-phenyl)-1H-pyrazol-4-yl]-1,5-naphthyridin-3-ol] | ≤ 20
26 | 0.0398 to 0.316 | CC(C)N1CCN(c2cnc3ccc(-c4c[nH]nc4-c4cc(Cl)ccc4F)nc3c2)CC1 [Compound 1-43, 2-[3-(5-chloro-2-fluoro-phenyl)-1H-pyrazol-4-yl]-7-(4-isopropylpiperazin-1-yl)-1,5-naphthyridine] | 25.1 to 158
27 | 0.398 to 3.16 | CN1CC2CN(c3cnc4ccc(-c5c[nH]nc5-c5cc(Cl)ccc5F)nc4c3)C2C1 (stereo not drawn) [Compound 1-72, 2-[3-(5-chloro-2-fluoro-phenyl)-1H-pyrazol-4-yl]-7-(3-methyl-3,6-diazabicyclo[3.2.0]heptan-6-yl)-1,5-naphthyridine] | 25.1 to 158
